From patent publication US9878977B2, “N-((3,4,5-trimethoxystyryl)aryl)cinnamamide compounds as potential anticancer agents and process for the preparation thereof” (COUNCIL OF SCIENTIFIC & INDUSTRIAL RESEARCH, priority 2014, dated 2018)
Read-outs that look alike come from different tables or passages of the source.

What was measured:
Format in all cases: cell-based, Human
MCF-7 = test: SRB anti-proliferative assay, MCF-7
Experimental: (§1) The synthesized N-(3,4,5-trimethoxystyryl)aryl)cinnamamides were evaluated for their anti-proliferative activity in selected human cancer cell lines of breast cancer (MCF-7), prostate cancer (DU-145), lung cancer (Hop-62), cervical cancer (Hela), leukemia (K562), ovarian cancer (SK-OV-3), colon cancer (Colo-205), pancreatic (MAIPA-CA-2) by using sulforhodamine B (SRB) method (Vichai, V.; Kirtikara, K. Nat. Protoc. 2006, 1, 1112). […] CA-4 was used as the reference compound.

SK-OV-3 = test: SRB anti-proliferative assay, SK-OV-3
Experimental: as §1

Colo-205 = test: SRB anti-proliferative assay, Colo-205
Experimental: as §1

MAIPA-CA-2 = test: SRB anti-proliferative assay, MAIPA-CA-2; settings: read-out: GI50 MAIPA-CA-2
Experimental: as §1

K562 = test: SRB anti-proliferative assay, K562
Experimental: as §1

Hop-62 = test: SRB anti-proliferative assay, Hop-62
Experimental: as §1

DU-145 = test: SRB anti-proliferative assay, DU-145
Experimental: as §1

Hela = test: SRB anti-proliferative assay, Hela; settings: read-out: GI50 Hela
Experimental: as §1

[1] = Homo sapiens, MCF7, read-out: GI50 MCF-7
[2] = Homo sapiens, SK-OV-3, read-out: GI50 SK-OV-3
[3] = Homo sapiens, COLO 205, read-out: GI50 Colo-205
[4] = Homo sapiens, K562, read-out: GI50 K562
[5] = Homo sapiens, HOP-62, read-out: GI50 Hop-62
[6] = Homo sapiens, DU-145, read-out: GI50 DU-145
[7] = MCF7, Human breast cancer, concentration of drug causing 50% inhibition of cell growth, read-out: GI50 MCF-7
[8] = SK-OV-3, Human ovarian cancer, concentration of drug causing 50% inhibition of cell growth, read-out: GI50 SK-OV-3
[9] = COLO 205, Human colon cancer, concentration of drug causing 50% inhibition of cell growth, read-out: GI50 Colo-205
[10] = Human pancreatic, concentration of drug causing 50% inhibition of cell growth
[11] = K562, Human leukemia, concentration of drug causing 50% inhibition of cell growth, read-out: GI50 K562
[12] = HOP-62, Human lung cancer, concentration of drug causing 50% inhibition of cell growth, read-out: GI50 Hop-62
[13] = DU-145, Human prostate cancer, concentration of drug causing 50% inhibition of cell growth, read-out: GI50 DU-145
[14] = Human cervical cancer, concentration of drug causing 50% inhibition of cell growth

| Structure (SMILES) | GI50 (MCF-7; [1]) [nM] | GI50 (SK-OV-3; [2]) [nM] | GI50 (Colo-205; [3]) [nM] | GI50 (MAIPA-CA-2; Homo sapiens) [nM] | GI50 (K562; [4]) [nM] | GI50 (Hop-62; [5]) [nM] | GI50 (DU-145; [6]) [nM] | GI50 (Hela; Homo sapiens) [nM] | GI50 (MCF-7; [7]) [nM] | GI50 (SK-OV-3; [8]) [nM] | GI50 (Colo-205; [9]) [nM] | GI50 (MAIPA-CA-2; [10]) [nM] | GI50 (K562; [11]) [nM] | GI50 (Hop-62; [12]) [nM] | GI50 (DU-145; [13]) [nM] | GI50 (Hela; [14]) [nM] |
| --- | --- | --- | --- | --- | --- | --- | --- | --- | --- | --- | --- | --- | --- | --- | --- | --- |
| COc1ccc(C=Cc2cc(OC)c(OC)c(OC)c2)c(NC(=O)/C=C/c2ccc(F)c(F)c2)c1O [Compound 20aa, (E)-3-(3,4-Difluorophenyl)-N-(2-hydroxy-3-methoxy-6-(3,4,5-trimethoxystyryl)phenyl)acrylamide] | 31 | 29800 | 74900 | 74000 | 99 | 43600 | 45 | 29200 |  |  |  |  |  |  |  |  |
| COc1ccc(C=Cc2cc(OC)c(OC)c(OC)c2)c(NC(=O)/C=C/c2cc(OC)c(OC)c(OC)c2)c1O [Compound 20ab, (E)-N-(2-Hydroxy-3-methoxy-6-(3,4,5-trimethoxystyryl)phenyl)-3-(3,4,5-trimethoxyphenyl)acrylamide] | 79 | 20900 | 76000 | 64500 | 28000 | 24800 | 95 | 14900 |  |  |  |  |  |  |  |  |
| COc1cccc(/C=C/C(=O)Nc2c(C=Cc3cc(OC)c(OC)c(OC)c3)ccc(OC)c2O)c1 [Compound 20f, (E)-N-(2-Hydroxy-3-methoxy-6-(3,4,5-trimethoxystyryl)phenyl)-3-(3-methoxyphenyl)acrylamide] |  |  |  |  |  |  |  |  | 59500 | 17600 | > 100000 | 93900 | 98 | 65400 | > 100000 | 18100 |
| COc1ccc(C=Cc2cc(OC)c(OC)c(OC)c2)c(NC(=O)/C=C/c2cccc(O)c2)c1O [Compound 20g, (E)-N-(2-Hydroxy-3-methoxy-6-(3,4,5-trimethoxystyryl)phenyl)-3-(3-hydroxyphenyl)acrylamide] | 63 | 97 | 13400 | 98 | 94 | 82 | 70 | 94.9 |  |  |  |  |  |  |  |  |
| C#CCOc1cccc(/C=C/C(=O)Nc2c(C=Cc3cc(OC)c(OC)c(OC)c3)ccc(OC)c2O)c1 [Compound 20h, (E)-N-(2-Hydroxy-3-methoxy-6-(3,4,5-trimethoxystyryl)phenyl)-3-(3-(prop-2-ynyloxy)phenyl)acrylamide] | 11600 | > 100000 | > 100000 | > 100000 | > 100000 | > 100000 | 96400 | > 100000 |  |  |  |  |  |  |  |  |
| C=CCOc1cccc(/C=C/C(=O)Nc2c(C=Cc3cc(OC)c(OC)c(OC)c3)ccc(OC)c2O)c1 [Compound 20i, (E)-3-(3-(Allyloxy)phenyl)-N-(2-hydroxy-3-methoxy-6-(3,4,5-trimethoxystyryl)phenyl)acrylamide] |  |  |  |  |  |  |  |  | 83 | 82 | 18000 | 98 | 91 | 60 | 85 | 78.7 |
| COc1ccc(C=Cc2cc(OC)c(OC)c(OC)c2)c(NC(=O)/C=C/c2ccc(C(F)(F)F)cc2)c1O [Compound 20n, (E)-N-(2-Hydroxy-3-methoxy-6-(3,4,5-trimethoxystyryl)phenyl)-3-(4-(trifluoromethyl)phenyl)acrylamide] | 83700 | > 100000 | > 100000 | > 100000 | 58000 | > 100000 | > 100000 | > 100000 |  |  |  |  |  |  |  |  |
| COc1ccc(C=Cc2cc(OC)c(OC)c(OC)c2)c(NC(=O)/C=C/c2ccc([N+](=O)[O-])cc2)c1O [Compound 20o, (E)-N-(2-Hydroxy-3-methoxy-6-(3,4,5-trimethoxystyryl)phenyl)-3-(4-nitrophenyl)acrylamide] | 72 | 17000 | 10300 | 40800 | 97 | 61 | 85 | 15700 |  |  |  |  |  |  |  |  |
| COc1ccc(C=Cc2cc(OC)c(OC)c(OC)c2)c(NC(=O)/C=C/c2ccc(Cl)cc2)c1O [Compound 20q, (E)-3-(4-Chlorophenyl)-N-(2-hydroxy-3-methoxy-6-(3,4,5-trimethoxystyryl)phenyl)acrylamide] |  |  |  |  |  |  |  |  | 55500 | 62600 | > 100000 | > 100000 | 24900 | 79400 | 54100 | 38800 |
| COc1ccc(C=Cc2cc(OC)c(OC)c(OC)c2)c(NC(=O)/C=C/c2ccc(F)cc2)c1O [Compound 20r, (E)-3-(4-Fluorophenyl)-N-(2-hydroxy-3-methoxy-6-(3,4,5-trimethoxystyryl)phenyl)acrylamide] |  |  |  |  |  |  |  |  | 66 | 47500 | 67600 | 78100 | 23500 | 43000 | 83 | 24000 |
| COc1ccc(/C=C/C(=O)Nc2c(C=Cc3cc(OC)c(OC)c(OC)c3)ccc(OC)c2O)cc1OC [Compound 20s, (E)-3-(3,4-Dimethoxyphenyl)-N-(2-hydroxy-3-methoxy-6-(3,4,5-trimethoxystyryl)phenyl)acrylamide] |  |  |  |  |  |  |  |  | 56 | 99 | 99 | 29900 | 94 | 90 | 60 | 7500 |
| COc1cc(/C=C/C(=O)Nc2c(C=Cc3cc(OC)c(OC)c(OC)c3)ccc(OC)c2O)ccc1O [Compound 20t, (E)-N-(2-Hydroxy-3-methoxy-6-(3,4,5-trimethoxystyryl)phenyl)-3-(4-hydroxy-3-methoxyphenyl)acrylamide] |  |  |  |  |  |  |  |  | 60 | 96 | 98 | 98 | 93 | 79 | 72 | 90 |
| COc1cc(/C=C/C(=O)Nc2c(C=Cc3cc(OC)c(OC)c(OC)c3)ccc(OC)c2O)ccc1[N+](=O)[O-] [Compound 20u, (E)-N-(2-Hydroxy-3-methoxy-6-(3,4,5-trimethoxystyryl)phenyl)-3-(3-methoxy-4-nitrophenyl)acrylamide] |  |  |  |  |  |  |  |  | 95 | 7900 | 96 | 23500 | 96 | 84 | 75 | 99 |
| COc1cc(/C=C/C(=O)Nc2c(C=Cc3cc(OC)c(OC)c(OC)c3)ccc(OC)c2O)ccc1N [Compound 20v, (E)-3-(4-Amino-3-methoxyphenyl)-N-(2-hydroxy-3-methoxy-6-(3,4,5-trimethoxystyryl)phenyl)acrylamide] |  |  |  |  |  |  |  |  | 74 | 94 | 86 | 97 | 82 | 35 | 85 | 90 |
| COc1ccc(/C=C/C(=O)Nc2c(C=Cc3cc(OC)c(OC)c(OC)c3)ccc(OC)c2O)cc1O [Compound 20x, (E)-N-(2-hydroxy-3-methoxy-6-(3,4,5-trimethoxystyryl)phenyl)-3-(3-hydroxy-4-methoxyphenyl)acrylamide] |  |  |  |  |  |  |  |  | 95 | 1800 | > 100000 | 46300 | 23700 | 17100 | 117 | 15900 |
